Laboratory results taken from patent US12491180B2, “Application of compound in treating pneumonia” (SHENZHEN OPTIMUM BIOLOGICAL TECHNOLOGY CO., LTD., priority 2019, dated 2025).
Converted amounts (≈) assume the structure as drawn. Read-outs that look alike come from different tables or passages of the source.

Legend:
[1] = tested on: Citrobacter freundii 9484; experiment: MIC, solid dilution method; assay type: cell-based
Procedure: (§1) CRE Citrobacter freundii 9434, 9484 and CSE Citrobacter freundii 7646, a total of 3 strains;
(§2) The above-mentioned glycerol-preserved strains were taken out from the −80° C. refrigerator, streaked and inoculated on MHA plates, labeled, and cultured overnight in a 37° C. incubator.
(§3) The inoculum was prepared directly from bacterial suspension, and several recovered colonies were picked and directly prepared into a bacterial suspension with a turbidity of No. 0.5 McFarland units in normal saline, and a 10-fold dilution was made during inoculation.
(§4) 6 bottles of MHA culture medium 500 mL/bottle were prepared, and the pH was adjusted to 7.2-7.4, sterilized at 121° C. for 15 min, and the medium was placed in a 55° C. water bath to keep warm.
(§5) Sterile blank petri dishes were taken, and marked with each FL drug/concentration according to 2-fold dilution, and 10 concentrations of each drug starting from 8 μg/mL were tested.
(§6) […]; 20 mL was aspirated and added to a petri dish consistent with the mark, and then 20 mL of MHA culture medium was added to the rest of the drug-containing culture medium, mixed evenly, that is, the 2-fold diluted drug-containing culture medium; 20 mL was aspirated and added to the petri dish consistent with the mark, and then diluted to the 10th concentration and the […] respectively by repeating the above-mentioned steps, and then poured into the petri dish.
(§7) 4 bacterial control petri dishes without drug were prepared at the same time as a control.
(§8) The positioning needle and the inoculation needle were installed according to the order of placement of the colony on the inoculation plate. After inoculation, a bacterial solution circle was formed on the petri dish. After the bacterial solution was absorbed by the agar, the petri dish was placed in an incubator at 37° C. for overnight incubation (16-20 hours), and then taken out.
(§9) The minimum inhibitory concentrations of the compounds against the CRE and CSE strains were determined by the solid dilution method, and the results are shown in Tables 3 and 4.

[2] = tested on: Citrobacter freundii 9434; experiment: MIC, solid dilution method; assay type: cell-based; details: 9434
Procedure: as §1, §2, §3, §4, §5, §6, §7, §8, §9

[3] = tested on: Citrobacter freundii 7646; experiment: MIC, solid dilution method; assay type: cell-based
Procedure: as §1, §2, §3, §4, §5, §6, §7, §8, §9

[4] = tested on: Enterobacter cloacae 11090; experiment: MIC, solid dilution method; assay type: cell-based
Procedure: as §2, §3, §5, §7, §8

[5] = tested on: Enterobacter cloacae 14653; experiment: MIC, solid dilution method; assay type: cell-based
Procedure: as §2, §3, §5, §7, §8

[6] = tested on: Enterobacter cloacae 11699; experiment: MIC, solid dilution method; assay type: cell-based
Procedure: as §2, §3, §5, §7, §8

[7] = tested on: Escherichia coli BAA-2452; experiment: MIC, solid dilution method; assay type: cell-based
Procedure: (§10) (1) Standard strains: Escherichia coli BAA-2452, Escherichia coli ATCC25922, Klebsiella pneumoniae BAA-1705; all purchased from ATCC.
as §2, §3, §4, §5, §6, §7, §8, §9

[8] = tested on: Escherichia coli ATCC25922; experiment: MIC, solid dilution method; assay type: cell-based
Procedure: as §10, §2, §3, §4, §5, §6, §7, §8, §9

[9] = tested on: Klebsiella pneumoniae BAA-1705; experiment: MIC, solid dilution method; assay type: cell-based
Procedure: as §10, §2, §3, §4, §5, §6, §7, §8, §9

Klebsiella oxytoca 12391 = experiment: MIC, solid dilution method; assay type: cell-based
Procedure: as §2, §3, §4, §5, §6, §7, §8, §9

Escherichia coli 14828 = experiment: MIC, solid dilution method; assay type: cell-based
Procedure: as §2, §3, §4, §5, §6, §7, §8, §9

E. coli 11256 = experiment: MIC, solid dilution method; assay type: cell-based; details: Escherichia coli
Procedure: as §2, §3, §4, §5, §6, §7, §8, §9

Escherichia coli 13897 = experiment: MIC, solid dilution method; assay type: cell-based
Procedure: as §2, §3, §4, §5, §6, §7, §8, §9

Klebsiella oxytoca 14151 = experiment: MIC, solid dilution method; assay type: cell-based
Procedure: as §2, §3, §4, §5, §6, §7, §8, §9

Klebsiella oxytoca 6777 = experiment: MIC, solid dilution method; assay type: cell-based
Procedure: as §2, §3, §4, §5, §6, §7, §8, §9

Escherichia coli 11119 = experiment: MIC, solid dilution method; assay type: cell-based
Procedure: as §2, §3, §4, §5, §6, §7, §8, §9

Klebsiella oxytoca 14153 = experiment: MIC, solid dilution method; assay type: cell-based
Procedure: as §2, §3, §4, §5, §6, §7, §8, §9

[10] = tested on: Klebsiella pneumoniae 12559; experiment: MIC, solid dilution method; assay type: cell-based
Procedure: (§11) (2) Clinical isolated strains: CRE Klebsiella pneumoniae 5846, 11544, 12559, 13249 and CSE Klebsiella pneumoniae 8733, a total of 5 strains;
as §2, §3, §4, §5, §6, §7, §8, §9

[11] = tested on: Klebsiella pneumoniae 8733; experiment: MIC, solid dilution method; assay type: cell-based
Procedure: as §11, §2, §3, §4, §5, §6, §7, §8, §9

[12] = tested on: Klebsiella pneumoniae 11544; experiment: MIC, solid dilution method; assay type: cell-based
Procedure: as §11, §2, §3, §4, §5, §6, §7, §8, §9

[13] = tested on: Klebsiella pneumoniae 5846; experiment: MIC, solid dilution method; assay type: cell-based
Procedure: as §11, §2, §3, §4, §5, §6, §7, §8, §9

[14] = tested on: Klebsiella pneumoniae 13249; experiment: MIC, solid dilution method; assay type: cell-based
Procedure: as §11, §2, §3, §4, §5, §6, §7, §8, §9

[15] = tested on: Enterobacter aerogenes 8193; experiment: MIC, solid dilution method; assay type: cell-based; details: Klebsiella aerogenes
Procedure: CRE Enterobacter aerogenes 8193, a total of 1 strain;
as §2, §3, §4, §5, §6, §7, §8, §9

E. ae 14186 = experiment: MIC, solid dilution method; assay type: cell-based, Enterobacter aerogenes; details: Klebsiella aerogenes, 14186
Procedure: as §2, §3, §4, §5, §6, §7, §8, §9

16 clinical CRE strains = experiment: MIC50, MIC90 and MIC range against 16 clinical CRE strains; assay type: cell-based
Procedure: as §2, §3, §4, §5, §6, §7, §8, §9

[16] = tested on: Acinetobacter baumannii 8476; experiment: MIC, solid dilution method; assay type: cell-based
Procedure: (§12) CRE Acinetobacter baumannii 8476, 6383, a total of 2 strains; CRE Serratia marcescens 14541, a total of 1 strain; all collected in the Department of Infectious Diseases, West China Hospital, Chengdu, Sichuan Province, and kept in our laboratory.
as §2, §3, §4, §5, §6, §7, §8, §9

[17] = tested on: Acinetobacter baumannii 6383; experiment: MIC, solid dilution method; assay type: cell-based
Procedure: as §12, §2, §3, §4, §5, §6, §7, §8, §9

[18] = tested on: Serratia marcescens 14541; experiment: MIC, solid dilution method; assay type: cell-based; details: 14541
Procedure: as §12, §2, §3, §4, §5, §6, §7, §8, §9

CC1(C)[C@H](NC(=O)/C(=N\O[C@@H](COc2ccc3c(c2)CN(C(=N)N(CCN)CCN)C3)C(=O)O)c2csc(N)n2)C(=O)N1OS(=O)(=O)O [Compound 45]
MIC [1]; 9484: 0.25 µg/mL (≈ 0.351 µM)
MIC [2]: 2 µg/mL (≈ 2.81 µM)
MIC [3]; 7646: 1 µg/mL (≈ 1.4 µM)
MIC [4]; 11090: 4 µg/mL (≈ 5.61 µM)
MIC [5]; 14653: 2 µg/mL (≈ 2.81 µM)
MIC [6]; 11699: 0.25 µg/mL (≈ 0.351 µM)
MIC ([7]; BAA2452): 1 µg/mL (≈ 1.4 µM)
MIC ([8]; ATCC25922): 0.125 µg/mL (≈ 0.175 µM)
MIC ([9]; BAA1705): 2 µg/mL (≈ 2.81 µM)
MIC (Klebsiella oxytoca 12391; 12391): 1 µg/mL (≈ 1.4 µM)
MIC (Escherichia coli 14828; 14828): 2 µg/mL (≈ 2.81 µM)
MIC (E. coli 11256; 11256): 0.25 µg/mL (≈ 0.351 µM)
MIC (Escherichia coli 13897; 13897): 0.5 µg/mL (≈ 0.701 µM)
MIC (Klebsiella oxytoca 14151; 14151): 2 µg/mL (≈ 2.81 µM)
MIC (Klebsiella oxytoca 6777; 6777): 2 µg/mL (≈ 2.81 µM)
MIC (Escherichia coli 11119; 11119): 8 µg/mL (≈ 11.2 µM)
MIC (Klebsiella oxytoca 14153; 14153): 2 µg/mL (≈ 2.81 µM)
MIC [10]; 12559: 0.5 µg/mL (≈ 0.701 µM)
MIC [11]; 8733: 0.5 µg/mL (≈ 0.701 µM)
MIC [12]; 11544: > 8 µg/mL
MIC [13]; 5846: 1 µg/mL (≈ 1.4 µM)
MIC [14]; 13249: > 8 µg/mL
MIC [15]; 8193: 4 µg/mL (≈ 5.61 µM)
MIC (E. ae 14186): 2 µg/mL (≈ 2.81 µM)
MIC50 (16 clinical CRE strains): 4 µg/mL (≈ 5.61 µM)
MIC90 (16 clinical CRE strains): > 8 µg/mL
MIC [16]; 8476: > 8 µg/mL
MIC [17]; 6383: > 8 µg/mL
MIC [18]: > 8 µg/mL

C[C@@H](O)[C@H]1C(=O)N2C(C(=O)O)=C(S[C@@H]3CN[C@H](C(=O)N(C)C)C3)[C@H](C)[C@H]12 [Meropenem, reference compound]
MIC ([1]; C.f 9484, CRE clinical isolate, MHA agar, 37° C., 16-20 hours, read-out: MIC): 0.06 µg/mL (≈ 0.156 µM)
MIC [2]: > 128 µg/mL
MIC ([3]; C.f 7646, CSE clinical isolate, MHA agar, 37° C., 16-20 hours, read-out: MIC): < 0.015 µg/mL
MIC ([4]; E. cl 11090, CRE clinical isolate, MHA agar, 37° C., 16-20 hours, read-out: MIC): 0.5 µg/mL (≈ 1.3 µM)
MIC ([5]; E. cl 14653, CRE clinical isolate, MHA agar, 37° C., 16-20 hours, read-out: MIC): 64 µg/mL (≈ 167 µM)
MIC ([6]; E. cl 11699, CSE clinical isolate, MHA agar, 37° C., 16-20 hours, read-out: MIC): < 0.015 µg/mL
MIC ([7]; BAA2452, E. coli BAA-2452, standard strain, MHA agar, 37° C., 16-20 hours, read-out: MIC): 16 µg/mL (≈ 41.7 µM)
MIC ([8]; E. coli ATCC25922, standard strain, MHA agar, 37° C., 16-20 hours, read-out: MIC): < 0.015 µg/mL
MIC ([9]; BAA1705, K.p BAA-1705, standard strain, MHA agar, 37° C., 16-20 hours, read-out: MIC): 16 µg/mL (≈ 41.7 µM)
MIC (Klebsiella oxytoca 12391; K. ox 12391, CRE clinical isolate, MHA agar, 37° C., 16-20 hours, read-out: MIC): 2 µg/mL (≈ 5.22 µM)
MIC (Escherichia coli 14828; E. coli 14828, CRE clinical isolate, MHA agar, 37° C., 16-20 hours, read-out: MIC): 8 µg/mL (≈ 20.9 µM)
MIC (E. coli 11256; E. coli 11256, MHA agar, 37° C., 16-20 hours, read-out: MIC): < 0.015 µg/mL
MIC (Escherichia coli 13897; E. coli 13897, CRE clinical isolate, MHA agar, 37° C., 16-20 hours, read-out: MIC): 4 µg/mL (≈ 10.4 µM)
MIC (Klebsiella oxytoca 14151; K. ox 14151, CRE clinical isolate, MHA agar, 37° C., 16-20 hours, read-out: MIC): 16 µg/mL (≈ 41.7 µM)
MIC (Klebsiella oxytoca 6777; K. ox 6777, CRE clinical isolate, MHA agar, 37° C., 16-20 hours, read-out: MIC): 16 µg/mL (≈ 41.7 µM)
MIC (Escherichia coli 11119; E. coli 11119, CRE clinical isolate, MHA agar, 37° C., 16-20 hours, read-out: MIC): 16 µg/mL (≈ 41.7 µM)
MIC (Klebsiella oxytoca 14153; K. ox 14153, CRE clinical isolate, MHA agar, 37° C., 16-20 hours, read-out: MIC): 32 µg/mL (≈ 83.4 µM)
MIC ([10]; K.p 12559, CRE clinical isolate, MHA agar, 37° C., 16-20 hours, read-out: MIC): 4 µg/mL (≈ 10.4 µM)
MIC ([11]; K.p 8733, CSE clinical isolate, MHA agar, 37° C., 16-20 hours, read-out: MIC): 0.03 µg/mL (≈ 0.0782 µM)
MIC ([12]; K.p 11544, CRE clinical isolate, MHA agar, 37° C., 16-20 hours, read-out: MIC): 32 µg/mL (≈ 83.4 µM)
MIC ([13]; K.p 5846, CRE clinical isolate, MHA agar, 37° C., 16-20 hours, read-out: MIC): 8 µg/mL (≈ 20.9 µM)
MIC ([14]; K.p 13249, CRE clinical isolate, MHA agar, 37° C., 16-20 hours, read-out: MIC): 64 µg/mL (≈ 167 µM)
MIC ([15]; E. ae 8193, CRE clinical isolate, MHA agar, 37° C., 16-20 hours, read-out: MIC): 16 µg/mL (≈ 41.7 µM)
MIC (E. ae 14186): 0.125 µg/mL (≈ 0.326 µM)
MIC ([16]; A.B 8476, CRE clinical isolate, MHA agar, 37° C., 16-20 hours, read-out: MIC): 64 µg/mL (≈ 167 µM)
MIC ([17]; A.B 6383, CRE clinical isolate, MHA agar, 37° C., 16-20 hours, read-out: MIC): 64 µg/mL (≈ 167 µM)
MIC [18]: 128 µg/mL (≈ 334 µM)
